Assay results reported in PubChem BioAssay (NCI).
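Each compound was tested at five concentrations against cells in 96-well plates for 48 hours. GI50 marks 50% less growth. At the TGI there is no net growth.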

What was measured:
Test in all cases: DTP human tumour cell line panel, 48 h
[1] = tested on: 786-0 renal
[2] = tested on: BT-549 breast
[3] = tested on: COLO 205 colon
[4] = tested on: HCT-116 colon
[5] = tested on: IGROV1 ovarian
[6] = tested on: NCI-H23 lung
[7] = tested on: OVCAR-5 ovarian
[8] = tested on: UACC-257 melanoma
[9] = tested on: UACC-62 melanoma
[10] = tested on: SK-OV-3 ovarian

Structure (SMILES)	TGI [1] [µM]	TGI [2] [µM]	TGI [3] [µM]	TGI [4] [µM]	TGI [5] [µM]	TGI [6] [µM]	TGI [7] [µM]	TGI [8] [µM]	TGI [9] [µM]	TGI [10] [µM]	GI50 [2] [µM]	GI50 [3] [µM]	GI50 [4] [µM]	GI50 [5] [µM]	GI50 [6] [µM]	GI50 [8] [µM]	GI50 [9] [µM]	GI50 [7] [µM]	GI50 [10] [µM]
O=C(/C=C/c1ccc(O)cc1)NCCc1ccc(O)cc1	> 12.5	> 12.5	> 12.5	> 12.5	> 12.5	> 12.5	> 12.5	> 12.5	> 12.5										
COc1cccc(-c2nc3c(C(=O)NCCN(C)C)cccc3[nH]2)c1			23.1	44.2	53.9	50.8	42.7	31.3	31.8	69.5									
C[N+]1(C)CCC(C#N)(c2ccccc2)CC1	> 100		> 100	> 100	> 100	> 100	> 100	> 100		> 100									
Oc1cc2cccc[n+]2c2cccc(Cl)c12			87.3			72.5		48.4			50.6	26.3	55.7	31.4	25.2	21.7	32.6		
CC1(C)COC(/C=C/C2=NC(C)(C)CO2)=N1		49.8	28.6	25.9	50.6	58.1	54.4	> 100	31.4	> 100									
CC(C)C(N=Cc1ccccc1O)C(=O)O (stereo unspecified)	> 100	> 100	> 100	> 100	> 100	> 100	> 100	> 100	> 100	> 100									
O=C1/C(=C\c2ccc(-c3ccc(Cl)cc3Cl)o2)SC2N=C(COc3ccc(Cl)cc3)NN12 (stereo unspecified)	> 100	> 100	> 100	> 100	> 100	> 100	> 100	74.4	> 100	> 100									
CC(O)C(O)C(N)CC=O (stereo unspecified)			> 500	> 500	> 500	> 500	> 500	> 500	> 500	> 500									
O=C(O)C1CC(c2ccccc2)=NN1c1ccccc1 (stereo unspecified)	> 100	> 100	> 100	> 100	> 100	> 100	> 100	> 100	> 100	> 100									
CCOC(=O)n1cncc1CC(NC(=O)Cc1c(C(=O)C=C(C)C)[nH]c2ccccc12)C(=O)OC (stereo unspecified)	55.5	37.3	41	> 100	37.5	68.2	35	28.2	36.3	35.3									
CN(C)Cc1ccc(C(=O)Nc2ccc3ncnc(Nc4ccc(Oc5cccc(F)c5)c(Cl)c4)c3c2)cc1					2.6	3.09	3.11		3.23					1.12	1.58		1.77	1.64	
Fc1ccc(-c2ccc(-c3nnc(-c4cc(F)c(Cl)cc4Cl)o3)o2)cc1Cl			42.8		> 100	> 100	> 100	> 100	51.2	> 100		18.8		30.1	47.9	46.1	17.6	> 100	41.2
c1ccc2sc(C3(N4CCCCC4)CCCC3)cc2c1	28.9	27.5	19.8	19.9	23.6	17.6	24.7	29.7	29.4	31.4									
COc1ccc(SC(C)(SC)c2ccccn2)c(OC)n1 (stereo unspecified)	> 100	> 100	> 100	> 100	> 100	> 100	> 100	> 100	> 100										
C[C@]12CC(c3ccccc3O1)C(C(=O)NC13CC4CC(CC(C4)C1)C3)C(=O)N2 (stereo partly specified)	40.8	61.8	31.7	41	> 100	61.9	52.7	> 100	> 100	> 100									
CC(=O)OCC1OC(O[C@@H]2c3c(O)c4c(c(O)c3C3=C(NN(c5ccc([N+](=O)[O-])cc5[N+](=O)[O-])[Se]3=O)[C@@]2(C)O)C(=O)c2ccccc2C4=O)C(OC(C)=O)C(OC(C)=O)C1OC(C)=O (stereo partly specified)	0.296	4.23	0.322	0.295	1.09	0.698	2.07	1.49	0.936	1.52									
O=S(=O)(O)c1c(N=Nc2c(O)ccc3ccccc23)ccc2ccccc12	> 100	> 100	> 100	> 100	> 100	> 100	> 100	> 100	> 100	> 100									
O=C1c2ccccc2-c2ccc(N=[N+]([O-])c3ccc4c(c3)C(=O)c3ccccc3-4)cc21	> 100	> 100	> 100	> 100	> 100	> 100	> 100	> 100	> 100	> 100									
COC(=O)C1=CC[C@@H]2C(C(=O)O)=CO[C@@H](OC3OC(CO)C(O)C(O)C3O)[C@H]12 (stereo partly specified)			> 300	> 300	> 300	> 300	> 300	> 300	> 300	> 300									
C=C1C(=O)OC2C1C(OC(=O)/C(C)=C/C)CC1(C)C(=O)CCC(=C)C21 (stereo unspecified)	20.9	18.7	20.3	31.2	26.6	30.1	32	28.5	23.5	51.7									
N#C/C=C1\C=CC(O)C(O)C1OC1OC(CO)C(O)C(O)C1O (stereo unspecified)	> 100	> 100	> 100	> 100	> 100	> 100	> 100	> 100	> 100	> 100									
